These results are taken from patent US20080108600A1, “Polycyclic Pyridines as Potassium Ion Channel Modulators” (Icagen, Inc., priority 2004, published 2008).

pIC50: −log10 of the molar value.

Experiment [1] deals with T1, recombinant human SK4 (hIK1, hKCa4) channels (Homo sapiens, UniProt O15554).
T1 construct: host or cells: HEK 293
To be noted: applied to the inside of SK4 channel-expressing membrane patches; cited from earlier work.

The subject of experiment [2] is learning and memory formation for a passive avoidance task in mice following electroconvulsive shock. In words: Electroconvulsive shock-passive avoidance model. The conditions noted are these: Mus musculus, ip, passive avoidance after electroconvulsive shock, read-out: In Vivo Inhibitory Activity (minimum effective dose, (MED)). From the text: 25.1 Assay for Compound Activity in an Electroconvulsive Shock-Passive/Avoidance Model
The effects of compounds of the invention were studied on learning and memory formation for a passive avoidance task in mice following electroconvulsive shock training utilizing a modification of the protocol described by Inan, et al., Eur. J. Pharmacol., (2000), 407(1-2): 159-64.

Another experiment has as its target hSK2 (Homo sapiens, UniProt Q9H2S1). The experiment is described as follows: 86Rb+ efflux assay for compound activity towards hSK channels. It is filed as cell-based. To be noted: 86Rb+ efflux stimulated with calcium ionophore; drug 0.01 to 30 μM; read-out: hSK2 Inhibitory Activity. As for the experimental part: 24.1 Assay for Compound Activity Towards hSK Channels
Cells expressing small conductance, calcium activated potassium channels, such as SK-like channels were loaded with ^86Rb^+ by culture in media containing ^86RbCl. Following loading, the culture media was removed and the cells were washed in EBSS to remove residual traces of ^86Rb^+. Cells were preincubated with the drug (0.01 to 30 μM in EBSS) and then ^86Rb^+ efflux was stimulated by exposing cells to EBSS solution supplemented with a calcium ionophore, such as ionomycin, in the continued presence of the drug. After a suitable efflux period, the EBSS/ionophore solution was removed from the cells and the ^86Rb^+ content was determined by Cherenkov counting (Wallac Trilux). Cells were then lysed with a SDS solution and the ^86Rb^+ content of the lysate was determined. Percent ^86Rb^+ efflux was calculated according to the following equation:
(^86Rb^+ content in EBSS/(86Rb^+ content in EBSS+^86Rb^+ content of the lysate))×100

Turning to `[Co+2]` [cobalt], the “activation of SK4 channels” value in experiment [1] is recorded as “did not activate the SK4 channels”.

For `[Cd]` [cadmium], the “activation of SK4 channels” value in experiment [1] was “activated SK4 channels in a concentration-dependent manner”.

Take `COc1ccc(-c2nccs2)nc1Nc1ccc(N2CCCC2)cn1` [(3-Methoxy-6-thiazol-2-yl-pyridin-2-yl)-(5-pyrrolidin-1-yl-pyridin-2-yl)-amine]: in experiment [2], the minimal effective dose was under 2 mg/kg. For the same compound, the pIC50 on hSK2 is over 7.00.

Turning to `[Zn+2]` [zinc], the “activation of SK4 channels” value in experiment [1] is listed as “did not activate the SK4 channels”.

As for `c1cc(Nc2ccc(CN3Cc4ccccc4C3)cn2)nc(-c2nccs2)c1` [[5-(1,3-Dihydro-isoindol-2-ylmethyl)-pyridin-2-yl]-(6-thiazol-2-yl-pyridin-2-yl)-amine], the minimal effective dose in experiment [2] is under 2 mg/kg.

On to `COc1ccc(-c2nccs2)nc1Nc1ccc(N2CCN(C)CC2)cn1` [(3-Methoxy-6-thiazol-2-yl-pyridin-2-yl)-[5-(4-methyl-piperazin-1-yl)-pyridin-2-yl]-amine], for which the minimal effective dose in experiment [2] is under 2 mg/kg. For the same compound, the pIC50 on hSK2 was over 7.00.

Turning to `COc1ccc(-c2nccs2)nc1Nc1ccc(N2CCCCC2)cn1` [(3-Methoxy-6-thiazol-2-yl-pyridin-2-yl)-(3,4,5,6-tetrahydro-2H-[1,3′]bipyridinyl-6′-yl)-amine], the minimal effective dose in experiment [2] is under 2 mg/kg. The pIC50 at hSK2 was over 7.00.

For `CN1CCC(=O)N(c2ccc(Nc3cccc(-c4nccs4)n3)nc2)CC1` [1-Methyl-4-[6-(6-thiazol-2-yl-pyridin-2-ylamino)-pyridin-3-yl]-[1,4]diazepan-5-one], the minimal effective dose in experiment [2] was under 2 mg/kg. Moreover, the pIC50 on hSK2 is 6.30 to 7.00.

For the compound `COc1ccc(-c2nccs2)nc1Nc1ccc(N2CCOCC2)cn1` [(3-Methoxy-6-thiazol-2-yl-pyridin-2-yl)-(5-morpholin-4-yl-pyridin-2-yl)-amine], the minimal effective dose in experiment [2] was under 2 mg/kg. Further, the pIC50 at hSK2 is over 7.00.

On to `[Fe]` [iron], for which, in experiment [1], the “activation of SK4 channels” value is given as “did not activate the SK4 channels”.

Take `[Ba+2]` [Barium]: in experiment [1], the “activation of SK4 channels” value is on record as “activated SK4 channels in a concentration-dependent manner”.

Regarding `c1cc(Nc2cc3c(cn2)CCCC3)nc(-c2nccs2)c1` [(5,6,7,8-Tetrahydro-isoquinolin-3-yl)-(6-thiazol-2-yl-pyridin-2-yl)-amine], in experiment [2], the minimal effective dose was under 2 mg/kg. The pIC50 at hSK2 was over 7.00.

Consider `Cc1cnn(-c2cccc(Nc3ccc(-c4cccc(F)c4)cn3)n2)c1` [[5-(3-Fluoro-phenyl)-pyridin-2-yl]-[6-(4-methyl-pyrazol-1-yl)-pyridin-2-yl]-amine], for which the minimal effective dose in experiment [2] is under 2 mg/kg. Further, the pIC50 at hSK2 is over 7.00.

With `Cc1ccc(Nc2cccc(-c3nccs3)n2)nc1` [(5-Methyl-pyridin-2-yl)-(6-thiazol-2-yl-pyridin-2-yl)-amine], the minimal effective dose in experiment [2] was 2 to 100 mg/kg. In addition, at hSK2, the pIC50 is over 7.00.

In the case of `c1ccc(-c2ccc(Nc3cccc(-c4nccs4)n3)nc2)cc1` [(5-Phenyl-pyridin-2-yl)-(6-thiazol-2-yl-pyridin-2-yl)-amine], in experiment [2], the minimal effective dose is under 2 mg/kg. Also, the pIC50 on hSK2 is 6.30 to 7.00.

Take `Clc1ccc(Nc2cccc(-c3nccs3)n2)nc1` [(5-Chloro-pyridin-2-yl)-(6-thiazol-2-yl-pyridin-2-yl)-amine]: the minimal effective dose in experiment [2] lay within 2 to 100 mg/kg. Besides, the pIC50 at hSK2 is over 7.00.

With `[Ca+2]` [calcium], the “activation of SK4 channels” value in experiment [1] is reported as “activated SK4 channels in a concentration-dependent manner”.

On to `COc1ccc(-c2ncc(Cl)s2)nc1Nc1ccc(N2CCCC2)cn1` [[6-(5-Chloro-thiazol-2-yl)-3-methoxy-pyridin-2-yl]-(5-pyrrolidin-1-yl-pyridin-2-yl)-amine], for which the minimal effective dose in experiment [2] was under 2 mg/kg. In addition, the pIC50 on hSK2 was over 7.00.

Take `O=C1CCCN1c1ccc(Nc2cccc(-c3ncc(Cl)s3)n2)nc1` [1-{6-[6-(5-Chloro-thiazol-2-yl)-pyridin-2-ylamino]-pyridin-3-yl}-pyrrolidin-2-one]: the minimal effective dose in experiment [2] is under 2 mg/kg. Further, the pIC50 at hSK2 was over 7.00.

Turning to `Clc1cnc(-c2cccc(Nc3ccc(N4CCCCC4)cn3)n2)s1` [[6-(5-Chloro-thiazol-2-yl)-pyridin-2-yl]-(3,4,5,6-tetrahydro-2H-[1,3′]bipyridinyl-6′-yl)-amine], the minimal effective dose in experiment [2] was under 2 mg/kg. Moreover, the pIC50 on hSK2 was 6.30 to 7.00.

As to `[Sr+2]` [strontium], in experiment [1], the “activation of SK4 channels” value is reported as “activated SK4 channels in a concentration-dependent manner”.

For `O=C1CNCCN1c1ccc(Nc2cccc(-c3nccs3)n2)nc1` [1-[6-(6-Thiazol-2-yl-pyridin-2-ylamino)-pyridin-3-yl]-piperazin-2-one], in experiment [2], the minimal effective dose was under 2 mg/kg. Moreover, the pIC50 on hSK2 was 6.30 to 7.00.

With `c1cc(Nc2ccc(-c3ccsc3)cn2)nc(-c2nccs2)c1` [(6-Thiazol-2-yl-pyridin-2-yl)-(5-thiophen-3-yl-pyridin-2-yl)-amine], the minimal effective dose in experiment [2] is under 2 mg/kg. Also, on hSK2, the pIC50 is over 7.00.

Regarding `Clc1ccc(Nc2cccc(-c3cnccn3)n2)nc1` [(5-Chloro-pyridin-2-yl)-(6-pyrazin-2-yl-pyridin-2-yl)-amine], the minimal effective dose in experiment [2] was under 2 mg/kg. Also, the pIC50 at hSK2 is 6.30 to 7.00.

As to `c1cc(Nc2ccc(CN3CCCC3)cn2)nc(-c2nccs2)c1` [(5-Pyrrolidin-1-ylmethyl-pyridin-2-yl)-(6-thiazol-2-yl-pyridin-2-yl)-amine], the minimal effective dose in experiment [2] is under 2 mg/kg. In addition, the pIC50 at hSK2 is over 7.00.

On to `Clc1ccc(Nc2cccc(-n3cccn3)n2)nc1` [(5-Chloro-pyridin-2-yl)-(6-pyrazol-1-yl-pyridin-2-yl)-amine], for which the minimal effective dose in experiment [2] was 2 to 100 mg/kg. For the same compound, the pIC50 on hSK2 is over 7.00.

As for `Cc1cnn(-c2cccc(Nc3ccc(Br)cn3)n2)c1` [(5-Bromo-pyridin-2-yl)-[6-(4-methyl-pyrazol-1-yl)-pyridin-2-yl]-amine], the minimal effective dose in experiment [2] was under 2 mg/kg. Moreover, the pIC50 on hSK2 was over 7.00.

Turning to `CCc1ccc(Nc2cccc(-c3nccs3)n2)nc1` [(5-Ethyl-pyridin-2-yl)-(6-thiazol-2-yl-pyridin-2-yl)-amine], the pIC50 at hSK2 is over 7.00.

Turning to `CN1CCN(c2ccc(Nc3cccc(-c4nccs4)n3)nc2)C(=O)C1` [4-Methyl-1-[6-(6-thiazol-2-yl-pyridin-2-ylamino)-pyridin-3-yl]-piperazin-2-one], the minimal effective dose in experiment [2] was under 2 mg/kg. For the same compound, the pIC50 at hSK2 is 6.30 to 7.00.

As to `COc1ccccc1-c1ccc(Nc2cccc(-c3nccs3)n2)nc1` [[5-(2-Methoxy-phenyl)-pyridin-2-yl]-(6-thiazol-2-yl-pyridin-2-yl)-amine], the minimal effective dose in experiment [2] lay within 2 to 100 mg/kg. Besides, the pIC50 on hSK2 is 6.30 to 7.00.

For `COc1ccc(-c2nccs2)nc1Nc1ccc(N2CCCC2=O)cn1` [1-[6-(3-Methoxy-6-thiazol-2-yl-pyridin-2-ylamino)-pyridin-3-yl]-pyrrolidin-2-one], the minimal effective dose in experiment [2] was under 2 mg/kg. Further, the pIC50 on hSK2 was over 7.00.

In the case of `COC(=O)c1ccc(Nc2cccc(-n3cccn3)n2)nc1` [6-(6-Pyrazol-1-yl-pyridin-2-ylamino)-nicotinic acid methyl ester], the pIC50 at hSK2 was 6.30 to 7.00.

On to `c1cncc(-c2ccc(Nc3cccc(-c4cnccn4)n3)nc2)c1` [[3,3′]Bipyridinyl-6-yl-(6-pyrazin-2-yl-pyridin-2-yl)-amine], for which the pIC50 on hSK2 was over 7.00.

In the case of `c1cc(Nc2ccc(-c3ccco3)cn2)nc(-c2nccs2)c1` [(5-Furan-2-yl-pyridin-2-yl)-(6-thiazol-2-yl-pyridin-2-yl)-amine], on hSK2, the pIC50 was over 7.00.

With `CCc1cnc(-c2cccc(Nc3ccc(N4CCCCC4=O)cn3)n2)s1` [6′-[6-(5-Ethyl-thiazol-2-yl)-pyridin-2-ylamino]-3,4,5,6-tetrahydro-[1,3′]bipyridinyl-2-one], at hSK2, the pIC50 is 6.30 to 7.00.

In the case of `CC(C)(C)c1ccc(Nc2cccc(-c3nccs3)n2)nc1` [(5-tert-Butyl-pyridin-2-yl)-(6-thiazol-2-yl-pyridin-2-yl)-amine], at hSK2, the pIC50 was 6.30 to 7.00.

Regarding `COc1ccc(-c2ncc(Cl)s2)nc1Nc1ccc(N2CCCC2=O)cn1` [1-{6-[6-(5-Chloro-thiazol-2-yl)-3-methoxy-pyridin-2-ylamino]-pyridin-3-yl}-pyrrolidin-2-one], on hSK2, the pIC50 was over 7.00.

As to `COc1ccc(-c2cnccn2)nc1Nc1ccc(N2CCN(C)CC2)cn1` [(3-Methoxy-6-pyrazin-2-yl-pyridin-2-yl)-[5-(4-methyl-piperazin-1-yl)-pyridin-2-yl]-amine], at hSK2, the pIC50 is over 7.00.

With `COCCN(C)c1ccc(Nc2nc(-c3ncc(Cl)s3)ccc2OC)nc1` [N^2-[6-(5-Chloro-thiazol-2-yl)-3-methoxy-pyridin-2-yl]-N^5-(2-methoxy-ethyl)-N^5-methyl-pyridine-2,5-diamine], the pIC50 on hSK2 is over 7.00.

For the compound `COc1ccc(-c2ncc(Cl)s2)nc1Nc1ccc(N2CCC(OC)CC2)cn1` [[6-(5-Chloro-thiazol-2-yl)-3-methoxy-pyridin-2-yl]-(4-methoxy-3,4,5,6-tetrahydro-2H-[1,3′]bipyridinyl-6′-yl)-amine], the pIC50 on hSK2 was over 7.00.
